Each compound was assayed against T1, human MRGPRX2 (Homo sapiens, UniProt Q96LB1) (assay: MRGPRX2 activity: IP-One HTRF antagonist assay in CHO cells versus Cortistatin-14). Conditions: CHO cells stably expressing human MRGPRX2; versus 0.3 uM Cortistatin-14 agonist; IP-1 HTRF.
T1 construct: expressed in transfected cells
T1 sequence (Q96LB1 1-330): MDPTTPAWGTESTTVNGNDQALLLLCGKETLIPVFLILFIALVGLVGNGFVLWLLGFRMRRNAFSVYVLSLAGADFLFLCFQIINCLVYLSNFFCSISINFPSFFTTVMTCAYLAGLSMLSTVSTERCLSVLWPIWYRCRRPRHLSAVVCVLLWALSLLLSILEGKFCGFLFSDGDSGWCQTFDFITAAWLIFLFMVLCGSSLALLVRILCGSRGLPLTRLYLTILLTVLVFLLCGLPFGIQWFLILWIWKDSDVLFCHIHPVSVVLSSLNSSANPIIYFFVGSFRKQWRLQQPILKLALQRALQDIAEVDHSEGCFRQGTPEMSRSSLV
Type: cell-based
Procedure: CHO cells stably transfected to express human MRGPRX2 were maintained in an incubator at 37° C. with 5% CO2 and grown in F12 (HAM) media with 10% fetal bovine serum (FBS), 1% Glutamax, 1% penicillin/streptomycin, 800 μg/mL Geneticin (G418), and 300 μg/mL Hygromycin B.
Cells were plated in a 384-well assay plate at 20,000 cells per well in 12 μL of Opti-MEM and kept in an incubator overnight. On the day of the assay, compounds solubilized at 10 mM in DMSO were added as a 10-point curve (30 uM final top concentration with 1:3 serial dilutions) using a Tecan D300E digital dispenser. Agonists were diluted in assay buffer (final concentrations of 5.7 mM Tris-HCl, 43 mM NaCl, 50 mM LiCl, pH=8) and 2 μL of the agonist Cortistatin-14 (CPC Scientific, catalog CORT-002) are added to each well. Final concentrations of agonists were 0.3 μM Cortistatin. Final concentrations of DMSO were kept consistent across the plate. Plates were incubated in the dark for 1 h at 37° C. and then for 1 h at room temperature. IP-1 standards and HTRF detection reagents were added according to the IP-One-Gq Kit purchased from Cisbio (part number 62IPAPEJ) and incubated in the dark for 1 h at room temperature. The plate was read on a Molecular Devices SpectraMax iD5 plate reader. The HTRF ratio was calculated from the raw data and graphed using GraphPad Prism to calculate an IC50 value for each compound.
The activity ranges are denoted as follows: “+++++” denotes antagonist activity <100 nM; “++++” denotes antagonist activity between 100 and 500 nM; “+++” denotes activity between 501 and 1000 nM; “[…]” denotes activity between 1001 and 2500 nM; and “+” denotes activity >2500 nM

IC50 [nM] | Compound
< 100 | O=C(N[C@@H]1CCC[C@H](Nc2cc(C(F)(F)F)nc3ccc(F)cc23)C1)c1cccc(O)c1 [Example 4-284]
100 to 500 | O=C(N[C@@H]1CCC[C@H](Nc2cc(C(F)(F)F)nc3ccc(Cl)cc23)C1)c1cccc(Cl)c1 [Example 4-249]
< 100 | Cc1nn(C)cc1C(=O)N[C@@H]1CCC[C@H](Nc2cc(C(F)(F)F)nc3ccc(Cl)cc23)C1 [Example 4-401]
< 100 | O=C(N[C@@H]1CCC[C@H](Nc2cc(C(F)(F)F)nc3ccc(Cl)cc23)C1)c1cc(O)cc(O)c1 [Example 4-271]
< 100 | CS(=O)(=O)Nc1ccc(C(=O)N[C@@H]2CCC[C@H](Nc3cc(C(F)(F)F)nc4ccc(F)cc34)C2)cc1 [Example 4-317]
< 100 | CC(C)(C)OC(=O)N1CC[C@@H](n2cc(C(=O)N[C@@H]3CCC[C@H](Nc4cc(C(F)(F)F)nc5ccc(Cl)cc45)C3)cn2)C1 [Example 40, tert-butyl (R)-3-(4-(((1R,3S)-3-((6-chloro-2-(trifluoromethyl)quinolin-4-yl)amino)cyclohexyl)carbamoyl)-1H-pyrazol-1-yl)pyrrolidine-1-carboxylate]
< 100 | Cn1cc(C(=O)N[C@@H]2CCC[C@H](Nc3cc(C(F)(F)F)nc4ccc(Cl)cc34)C2)c(C(F)F)n1 [Example 4-404]
100 to 500 | Cc1ccc2nc(C(F)(F)F)cc(N[C@H]3CCC[C@@H](NC(=O)c4cccc(N(C)C)c4)C3)c2c1 [Example 4-159]
< 100 | Nc1cnc(Cl)c(C(=O)N[C@@H]2CCC[C@H](Nc3cc(C(F)(F)F)nc4ccc(Cl)cc34)C2)c1 [Example 4-418]
> 2500 | O=C(CCc1ccc(Cl)c(F)c1)N[C@@H]1CCC[C@H](Nc2cc(C(F)(F)F)nc3ccccc23)C1 (racemic) [Example 4-82]
< 100 | CCn1ncc(C(=O)N[C@@H]2CCC[C@H](Nc3cc(C(F)(F)F)nc4ccc(Cl)cc34)C2)c1C [Example 4-452]
< 100 | O=C(N[C@@H]1CCC[C@H](Nc2cc(C(F)(F)F)nc3ccc(Cl)cc23)C1)N1CCCC1 [Example 8-3]
< 100 | CC(C)(C)OC(=O)N1CCC[C@@H](n2cc(C(=O)N[C@@H]3CCC[C@H](Nc4cc(C(F)(F)F)nc5ccc(Cl)cc45)C3)cn2)C1 [Example 5-13]
< 100 | CNc1cc(C(=O)N[C@@H]2CCC[C@H](Nc3cc(C(F)(F)F)nc4ccc(Cl)cc34)C2)ccc1OC [Example 4-413]
< 100 | Cn1cc2c(n1)CCN(C(=O)N[C@@H]1CCC[C@H](Nc3cc(C(F)(F)F)nc4ccc(Cl)cc34)C1)C2 [Example 8-16]
< 100 | Cn1c(C(=O)N[C@@H]2CCC[C@H](Nc3cc(C(F)(F)F)nc4ccc(Cl)cc34)C2)cnc1Cl [Example 4-412]
< 100 | Cc1nc2c(s1)CN(C(=O)N[C@@H]1CCC[C@H](Nc3cc(C(F)(F)F)nc4ccc(Cl)cc34)C1)CC2 [Example 46, N-((1R,3S)-3-((6-chloro-2-(trifluoromethyl)quinolin-4-yl)amino)cyclohexyl)-2-methyl-6,7-dihydrothiazolo[5,4-c]pyridine-5(4H)-carboxamide]
< 100 | Cc1nn(CC(F)(F)F)cc1C(=O)N[C@@H]1CCC[C@H](Nc2cc(C(F)(F)F)nc3ccc(Cl)cc23)C1 [Example 4-464]
100 to 500 | COC(=O)c1cccc(C(=O)N[C@@H]2CCC[C@H](Nc3cc(C(F)(F)F)nc4ccccc34)C2)c1 [Example 3-5]
< 100 | Cc1cn2cc(C(=O)N[C@@H]3CCC[C@H](Nc4cc(C(F)(F)F)nc5ccc(Cl)cc45)C3)ccc2n1 [Example 4-265]
< 100 | O=C(N[C@@H]1CCC[C@H](Nc2cc(C(F)(F)F)nc3ccc(Cl)cc23)C1)c1cnn(CCCl)c1 [Example 4-396]
< 100 | N#Cc1nn(CCF)cc1C(=O)N[C@@H]1CCC[C@H](Nc2cc(C(F)(F)F)nc3ccc(Cl)cc23)C1 [Example 5-31]
100 to 500 | CCCn1nccc1C(=O)N[C@@H]1CCC[C@H](Nc2cc(C(F)(F)F)nc3ccc(F)cc23)C1 [Example 4-325]
< 100 | Cc1cn(C)cc1C(=O)N[C@@H]1CCC[C@H](Nc2cc(C(F)(F)F)nc3ccc(Cl)cc23)C1 [Example 4-417]

The remaining lines, values behind:

Compound | IC50 [nM]
O=C(N[C@@H]1CCC[C@H](Nc2cc(C(F)(F)F)nc3ccc(Cl)cc23)C1)c1cccc2[nH]ccc12 [Example 4-223] | < 100
CCc1[nH]ccc1C(=O)N[C@@H]1CCC[C@H](Nc2cc(C(F)(F)F)nc3ccc(Cl)cc23)C1 [Example 4-427] | < 100
O=C(N[C@@H]1CCC[C@H](Nc2cc(C(F)(F)F)nc3ccc(Cl)cc23)C1)c1ccn2cnnc2c1 [Example 4-397] | < 100
O=C(N[C@@H]1CCC[C@H](Nc2cc(C(F)(F)F)nc3ccccc23)C1)C1COCCN1Cc1ccccc1 (mixture of isomers) [Example 4-31] | > 2500
O=C(N[C@@H]1CCC[C@H](Nc2cc(C(F)(F)F)nc3ccc(Cl)cc23)C1)c1cnn(C2CCCCC2)c1 [Example 4-487] | < 100
O=C(N[C@@H]1CCC[C@H](Nc2cc(C(F)(F)F)nc3ccccc23)C1)c1coc2ccccc2c1=O (racemic) [Example 4-111] | > 2500
Cn1ccc(C(=O)N[C@@H]2CCC[C@H](Nc3cc(C(F)(F)F)nc4ccc(Cl)cc34)C2)c1 [Example 4-416] | < 100
Cc1cc(C(=O)N[C@@H]2CCC[C@H](Nc3cc(C(F)(F)F)nc4ccc(Cl)cc34)C2)co1 [Example 4-419] | < 100
CCc1ccc(C(=O)N[C@@H]2CCC[C@H](Nc3cc(C(F)(F)F)nc4ccccc34)C2)cc1 [Example 4-18] | 100 to 500
CC(C)S(=O)(=O)Nc1cccc(C(=O)N[C@@H]2CCC[C@H](Nc3cc(C(F)(F)F)nc4ccc(F)cc34)C2)c1 [Example 4-297] | < 100
O=C(N[C@@H]1CCC[C@H](Nc2cc(C(F)(F)F)nc3ccccc23)C1)c1ccc2[nH]c(-c3ccncc3)nc2c1 [Example 4-181] | 100 to 500
CS(=O)(=O)Nc1cccc(C(=O)N[C@@H]2CCC[C@H](Nc3cc(C(F)(F)F)nc4ccc(F)cc34)C2)c1 [Example 4-302] | < 100
O=C(N[C@@H]1CCC[C@H](Nc2cc(C(F)(F)F)nc3ccc(Cl)cc23)C1)c1ccc(C(=O)N2CCOCC2)cc1 [Example 3-20] | < 100
O=C(N[C@@H]1CCC[C@H](Nc2cc(C(F)(F)F)nc3ccc(Cl)cc23)C1)c1cn[nH]c1C1CC1 [Example 4-405] | < 100
O=C(N[C@@H]1CCC[C@H](Nc2cc(C(F)(F)F)nc3ccc(Cl)cc23)C1)c1ccon1 [Example 4-425] | < 100
O=C(N[C@@H]1CCC[C@H](Nc2cc(C(F)(F)F)nc3ccc(Cl)cc23)C1)c1ccc2nncn2c1 [Example 4-245] | < 100
CNc1ccccc1C(=O)N[C@@H]1CCC[C@H](Nc2cc(C(F)(F)F)nc3ccc(C)cc23)C1 [Example 4-165] | 501 to 1000
CS(=O)(=O)Nc1cc(C(=O)N[C@@H]2CCC[C@H](Nc3cc(C(F)(F)F)nc4ccc(Cl)cc34)C2)ccc1F [Example 4-258] | < 100
O=C(CCc1cc(Br)ccc1F)N[C@@H]1CCC[C@H](Nc2cc(C(F)(F)F)nc3ccccc23)C1 (racemic) [Example 4-74] | > 2500
CC(C#N)c1cccc(C(=O)N[C@@H]2CCC[C@H](Nc3cc(C(F)(F)F)nc4ccc(F)cc34)C2)c1 (stereo partly shown) [Example 4-282] | < 100
O=C(N[C@@H]1CCC[C@H](Nc2cc(C(F)(F)F)nc3ccc(Cl)cc23)C1)c1cn(C(F)F)nc1Cl [Example 4-406] | < 100
O=C(N[C@@H]1CCC[C@H](Nc2cc(C(F)(F)F)nc3ccc(Cl)cc23)C1)c1ncco1 [Example 4-424] | < 100
CN(C)c1cccc(C(=O)N[C@@H]2CCC[C@H](Nc3cc(C(F)(F)F)nc4ccc(Cl)cc34)C2)c1 [Example 4-216] | 100 to 500
CN(C)Cc1ccc(C(=O)N[C@@H]2CCC[C@H](Nc3cc(C(F)(F)F)nc4ccc(Cl)cc34)C2)cc1 [Example 4-410] | < 100
CC1C(C(=O)N[C@@H]2CCC[C@H](Nc3cc(C(F)(F)F)nc4ccccc34)C2)CC2CC1C2(C)C (mixture of isomers) [Example 4-64] | > 2500
Cc1cc(C(=O)N[C@@H]2CCC[C@H](Nc3cc(C(F)(F)F)nc4ccc(Cl)cc34)C2)c(C)[nH]1 [Example 4-426] | < 100
O=C(N[C@@H]1CCC[C@H](Nc2cc(C(F)(F)F)nc3ccc(Cl)cc23)C1)c1ccc(N2CC2)cc1 [Example 4-415] | < 100
CC(C)S(=O)(=O)Nc1cccc(C(=O)N[C@@H]2CCC[C@H](Nc3cc(C(F)(F)F)nc4ccc(Cl)cc34)C2)c1 [Example 4-228] | < 100

From patent US12129244B2, “Modulators of Mas-related G-protein receptor X2 and related products and methods” (Escient Pharmaceuticals, Inc., priority 2022, dated 2024)
